# From publication PMC4144712 (Biochemistry, 2014)
# What was measured:
# CXCR4 = CXCR4 (Homo sapiens, UniProt P61073); experiment: CXCR4-FITC-DV1 competitive binding assay; details: CHO-CXCR4 cells; 800 nM FITC-DV1
# CCR5 = experiment: Inhibition of FITC-DV1 binding in CCR5-expressing cell line; details: data not shown
# CCR3 = experiment: Inhibition of FITC-DV1 binding in CCR3-expressing cell line; details: data not shown
# Chain of CXCR4 (P61073 whole entry): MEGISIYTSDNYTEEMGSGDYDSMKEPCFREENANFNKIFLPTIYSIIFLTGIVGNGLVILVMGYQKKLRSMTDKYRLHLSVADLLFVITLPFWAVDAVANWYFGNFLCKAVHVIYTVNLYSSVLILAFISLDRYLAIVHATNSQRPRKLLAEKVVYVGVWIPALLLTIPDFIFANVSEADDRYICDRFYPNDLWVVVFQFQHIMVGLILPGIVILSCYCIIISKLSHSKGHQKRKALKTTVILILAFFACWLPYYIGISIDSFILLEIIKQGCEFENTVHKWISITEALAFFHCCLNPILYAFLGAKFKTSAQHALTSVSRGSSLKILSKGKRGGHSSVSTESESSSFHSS
Compound,inhibition of the binding of FITC-DV1 to CXCR4 (in words) (CXCR4),inhibition of the binding of FITC-DV1 in CCR5-expressing cell line (CCR5),inhibition of the binding of FITC-DV1 in CCR3-expressing cell line (CCR3)
c1cc(CN2CCCNCCNCCCNCC2)ccc1CN1CCCNCCNCCCNCC1 [AMD3100],inhibited the binding of FITC-DV1 to CXCR4,,
RANTES: a common ligand of CCR5 and CCR3,,"Neither ubiquitin, a ligand of CXCR4, nor RANTES (a common ligand of CCR5 and CCR3) inhibited the binding of FITC-DV1","Neither ubiquitin, a ligand of CXCR4, nor RANTES (a common ligand of CCR5 and CCR3) inhibited the binding of FITC-DV1"
